What was measured:
THLE-2 = test: Cytotoxicity against human THLE2 cells assessed as reduction in cell viability after 72 hrs by MTS assay; format: cell-based; conditions: thle-2, 72 h
[1] = Metabolic stability in human liver microsomes assessed as parent compound remaining at 1 uM preincubated for 10 mins followed by NADP addition measured after 20 mins by LC-MS/MS analysis; format: ADME, microsome; conditions: read-out: Stability
[2] = Metabolic stability in mouse liver microsomes assessed as parent compound remaining at 1 uM preincubated for 10 mins followed by NADP addition measured after 20 mins by LC-MS/MS analysis; format: ADME, microsome; conditions: read-out: Stability

| SMILES | LC50 (THLE-2) [nM] | remaining at 20 min, 1 µM [1] [%] | remaining at 20 min, 1 µM [2] [%] |
| --- | --- | --- | --- |
| COc1cc2c(NCC3CCN(C)CC3)cc(-c3ccc(C)o3)nc2cc1OCCCN1CCCC1 | 1300 | – | – |
| CCc1ccc(-c2cc(NCC3C4CCC3CN(C)C4)c3cc(OC)c(OCCCN4CCCC4)cc3n2)o1 (stereo not drawn) | < 164 | – | – |
| COc1cc2c(NC3CC4(CCN(C(C)C)CC4)C3)cc(-c3ccc(C)o3)nc2cc1OCCCN1CCCC1 | 841 | – | – |
| Cc1ccc(-c2cc(NC3CCN(C)CC3)c3cc(Cl)c(OCCCN4CCCC4)cc3n2)o1 | 2310 | 81.7 | 81.7 |
| COc1cc2c(NC3CCN(C)CC3)cc(-c3ccc(C)o3)nc2cc1OCC1CCN(C)CC1 | 1030 | – | – |
| COc1cc2c(NC3CC4(CCN(C(C)C)CC4)C3)cc(-c3ccc(C)o3)nc2cc1OC1CC2(C1)CN(C)C2 (stereo not drawn) | 4650 | – | – |
| COc1cc2c(NC3CC4(CCN(C)CC4)C3)cc(-c3ccc(C)o3)nc2cc1OCCCN1CCCC1 | 992 | 68.6 | 40.6 |
| COc1cc2c(NC3CCN(C)C(=O)C3)cc(-c3ccc(C)o3)nc2cc1OCCCN1CCCC1 (stereo not drawn) | 7950 | 82.7 | 71.9 |
| CCc1ccc(-c2cc(NC3CCN(C)CC3)c3cc(OC)c(OCCCN(C)C)cc3n2)o1 | 3520 | – | – |
| COc1cc2c(NC3CCC34CCN(C)C4)cc(-c3ccc(C)o3)nc2cc1OCCCN1CCCC1 (stereo not drawn) | 1980 | – | – |
| CCc1ccc(-c2cc(NC3CCN(C)CC3)c3cc(OC)c(OCCCN4CCC5(CC5)C4)cc3n2)o1 | 2040 | – | – |
| COc1cc2c(NC3CCN(C)CC3)cc(-c3ccc(C)o3)nc2cc1OC1CC2(C1)CN(C)C2 | 698 | 49.8 | 43.3 |
| COc1cc2c(NC3CCC34CCN(C)CC4)cc(-c3ccc(C)o3)nc2cc1OCCCN1CCCC1 (stereo not drawn) | 731 | 80.4 | 53.3 |
| COc1cc2c(NC3CC4(CCN(C)CC4)C3)cc(-c3ccc(C)o3)nc2cc1OCC1CCN(C)CC1 | 2530 | – | – |
| COc1cc2c(NC3CC4(CCN(C)C4)C3)cc(-c3ccc(C)o3)nc2cc1OCCCN1CCCC1 (stereo not drawn) | 8380 | – | – |
| CCc1ccc(-c2cc(NC3CCC34CCN(C)CC4)c3cc(OC)c(OCCCN4CCCC4)cc3n2)o1 (stereo not drawn) | 517 | – | – |
| COc1cc2c(NC3CCN(C)CC3)cc(-c3ccc(C)o3)nc2cc1OCC1CCNCC1 | 24800 | – | – |
| COc1cc2c(NC3CCN(C)CC3)cc(-c3ccc(C)o3)nc2cc1OCCCN1CCCC1 | 1780 | – | – |
| CCc1ccc(-c2cc(NC3CCN(C)CC3)c3cc(OC)c(OCCCN4CCCCC4)cc3n2)o1 | 1380 | – | – |
| CCc1ccc(-c2cc(NC3CCN(C)CC3)c3cc(OC)c(OCCCN4CCCC4)cc3n2)o1 | 2320 | – | – |
| COc1cc2c(NC3C4CCC3CN(C)C4)cc(-c3ccc(C)o3)nc2cc1OCCCN1CCCC1 (stereo not drawn) | 527 | – | – |
| CCc1ccc(-c2cc(NCC3CCN(C)CC3)c3cc(OC)c(OCCCN4CCCC4)cc3n2)o1 | 954 | 69 | 59.1 |
| COc1cc2c(NCC3CCN(C(C)C)CC3)cc(-c3ccc(C)o3)nc2cc1OCCCN1CCCC1 | 777 | – | – |
| COc1cc2c(NC3CC4CCC(C3)N4C)cc(-c3ccc(C)o3)nc2cc1OCCCN1CCCC1 (stereo not drawn) | 4150 | 60.3 | 43.9 |
